Test results as given in ChEMBL document CHEMBL4118195, “Synthesis and profiling of benzylmorpholine 1,2,4,5-tetraoxane analogue N205: Towards tetraoxane scaffolds with potential for single dose cure of malaria” (Bioorg Med Chem, 2018).

What was measured:
[1] = Retention time of the compound; format: physicochemical
[2] = Drug level in mouse liver microsomes treated with N205 at 5 uM after 60 mins by UPLC-MS analysis; format: ADME, microsome; details: 1 h
[3] = Drug level in rat liver microsomes treated with N205 at 5 uM after 60 mins by UPLC-MS analysis; format: ADME, microsome; details: 1 h
[4] = Drug level in human liver microsomes treated with N205 at 5 uM after 60 mins by UPLC-MS analysis; format: ADME, microsome; details: 1 h
[5] = Clearance in Sprague-Dawley rat plasma at 100 mg/kg, po administered via gavage or administered as 10 mins infusion iv by LC/MS analysis; format: ADME, organism-based
Plasmodium berghei [6] = assay: Antimalarial activity against Plasmodium berghei infected in mouse assessed as reduction in parasitemia at 30 mg/kg, po administered as single dose measured on day 3 relative to control; format: functional; set-up: scale not given: the % may be the effect or the level left
[7] = Volume of distribution at steady state in Sprague-Dawley rat plasma at 100 mg/kg, po administered via gavage or iv administered as 10 mins infusion by LC/MS analysis; format: ADME, organism-based; details: read-out: Vdss
[8] = Protein binding in human plasma at 2000 ng/ml after 6 hrs by equilibrium dialysis method; format: ADME, cell-free; details: read-out: PB
Plasmodium berghei [9] = assay: Antimalarial activity against Plasmodium berghei infected in mouse assessed as mouse mean survival days at 30 mg/kg, po administered as single dose; format: functional
[10] = Solubility in pH 5 FeSSIF after 4 hrs by HPLC analysis; format: physicochemical
[11] = Half life in iv dosed Sprague-Dawley rat plasma administered as 10 mins infusion by LC/MS analysis; format: ADME, organism-based
[12] = Solubility in PH 7.4 PBS buffer after 4 hrs by HPLC analysis; format: physicochemical
[13] = Protein binding in human liver microsomes at 1 uM by ultracentrifugation method; format: ADME, microsome; details: read-out: PB
[14] = Aqueous solubility after 4 hrs by HPLC analysis; format: physicochemical; details: water
[15] = Solubility in pH 2 citric acid monophosphate buffer after 4 hrs by HPLC analysis; format: physicochemical
[16] = Solubility in 0.01 N HCl buffer at pH 2 after 4 hrs by HPLC analysis; format: physicochemical
[17] = Solubility in 0.1 N HCl buffer at pH 1 after 4 hrs by HPLC analysis; format: physicochemical
[18] = Solubility in pH 6.5 FaSSIF after 4 hrs by HPLC analysis; format: physicochemical
[19] = Drug degradation in human blood after 4 hrs by LC-MS method; format: ADME, tissue-based; details: read-out: Drug degradation
[20] = Half life in rat blood after 4 hrs by LC-MS method; format: ADME, tissue-based
Plasmodium falciparum [21] = assay: Antimalarial activity against Plasmodium falciparum 3D7 infected in human erythrocytes after 48 hrs by SYBR Green I dye-based fluorescence assay; format: functional, organism-based; details: 3D7, 48 h
[22] = Half life in rat blood by LC-MS method; format: ADME, tissue-based
[23] = Half life in Sprague-Dawley rat at 10 mg/kg, po; format: ADME, organism-based; details: in vivo
Plasmodium falciparum [24] = assay: Antimalarial activity against Plasmodium falciparum Pf3D70087/N9 infected in po dosed humanized NOD.Cg-Prkdcscid Il2rgtm1Wjl/SzJ mouse assessed as compound concentration in whole blood require to reduce parasitemia in peripheral blood by 90% administered as single dose measured on day 7 post infection by SYTO-16 dye-based flow cytometric analysis; format: functional, organism-based
[25] = Oral bioavailability in Sprague-Dawley rat at 100 mg/kg administered via gavage by LC/MS analysis; format: ADME, organism-based; details: in vivo
[26] = Metabolic stability in human blood after 2 to 4 hrs by LC-MS method; format: ADME, tissue-based
[27] = Metabolic stability in rat blood after 2 to 4 hrs by LC-MS method; format: ADME, tissue-based
Plasmodium falciparum [28] = assay: Antimalarial activity against Plasmodium falciparum Pf3D70087/N9 infected in humanized NOD.Cg-Prkdcscid Il2rgtm1Wjl/SzJ mouse assessed as reduction in parasitemia administered 4 daily doses by SYTO-16 dye-based flow cytometric analysis; format: functional
Plasmodium falciparum [29] = assay: Antimalarial activity against Plasmodium falciparum Pf3D70087/N9 infected in po dosed humanized NOD.Cg-Prkdcscid Il2rgtm1Wjl/SzJ mouse assessed as reduction in parasitemia administered as single dose measured on day 7 post infection by SYTO-16 dye-based flow cytometric analysis; format: functional; details: 168 h

## OCCNCc1ccc(C2CCC3(CC2)OOC2(OO3)C3CC4CC(C3)CC2C4)cc1 (centres undefined)
[1]
  Retention_time: 3.54 min
[2]
  Drug metabolism: Metabolite_Detected
[3]
  Drug metabolism: Metabolite_Detected
[4]
  Drug metabolism: Metabolite_Detected

## CS(=O)(=O)O.c1cc(C2CCC3(CC2)OOC2(OO3)C3CC4CC(C3)CC2C4)ccc1CN1CCOCC1 (centres undefined)
[5]
  clearance: 77 mL/min/kg
Plasmodium berghei [6]
  Activity: 99.3%
[7]
  Vd: 11 L/kg
[8]
  fraction unbound at 6 h, 2000 ng/ml: < 0.001
Plasmodium berghei [9]
  MSD: 25 days
[10]; simulated gi fluid, pH 5, 4 h
  solubility: 760 µg/mL
[11]
  half-life: 6.35 h
[12]
  solubility at 4 h: < 0.1 µg/mL
[13]
  fraction unbound at 1 µM: < 0.001
[14]
  solubility at 4 h: > 9000 µg/mL
[15]
  solubility at 4 h: > 9000 µg/mL
[16]
  solubility at 4 h: 172 µg/mL
[17]
  solubility at 4 h: 17 µg/mL
[18]
  solubility at 4 h: 18 µg/mL
[19]
  metabolised at 4 h: 10%
[20]
  half-life: 8 h

## O=C(c1ccc(C2CCC3(CC2)OOC2(OO3)C3CC4CC(C3)CC2C4)cc1)N1CCCNCC1 (centres undefined)
Plasmodium falciparum [21]
  IC50: 0.82 nM
[22]
  half-life: < 4 h

## CNCCNC(=O)c1ccc(C2CCC3(CC2)OOC2(OO3)C3CC4CC(C3)CC2C4)cc1 (centres undefined)
Plasmodium falciparum [21]
  IC50: 0.84 nM
[22]
  half-life: < 4 h

## CN1CCN(C2CCN(C(=O)CC3CCC4(CC3)OOC3(OO4)C4CC5CC(C4)CC3C5)CC2)CC1 (centres undefined)
[23]
  half-life: 3.5 h
Plasmodium berghei [6]
  Activity: 99.98%
Plasmodium berghei [9]
  MSD: 11.4 days

## O=C(c1ccc(C2CCC3(CC2)OOC2(OO3)C3CC4CC(C3)CC2C4)cc1)N1CCSCC1 (centres undefined)
Plasmodium falciparum [21]
  IC50: 15 nM
[22]
  half-life: < 4 h

## c1cc(C2CCC3(CC2)OOC2(OO3)C3CC4CC(C3)CC2C4)ccc1CN1CCOCC1 (centres undefined)
Plasmodium falciparum [24]
  AUCED90: < 0.75 µg·h/mL

## O=C(c1ccc(C2CCC3(CC2)OOC2(OO3)C3CC4CC(C3)CC2C4)cc1)N1CCNCC1 (centres undefined)
Plasmodium berghei [6]
  Activity: 99%
Plasmodium berghei [9]
  MSD: 10 days
Plasmodium falciparum [21]
  IC50: 3 nM
[22]
  half-life: < 4 h

## c1cc(C2CCC3(CC2)OOC2(O3)C3CC4CC(C3)CC2C4)ccc1OCCN1CCOCC1 (centres undefined) [listing 1 of 2 here]
Plasmodium falciparum [24]
  AUCED90: 0.68 µg·h/mL

## OC1CCC(c2ccc(CN3CCOCC3)cc2)CC1 (centres undefined)
[1]
  Retention_time: 0.86 min
[2]
  Drug metabolism: Metabolite_Detected
[3]
  Drug metabolism: Metabolite_Detected
[4]
  Drug metabolism: Metabolite_Detected

## NC1CCN(C(=O)c2ccc(C3CCC4(CC3)OOC3(OO4)C4CC5CC(C4)CC3C5)cc2)CC1 (centres undefined)
Plasmodium berghei [6]
  Activity: 99%
Plasmodium berghei [9]
  MSD: 8 days
Plasmodium falciparum [21]
  IC50: 4.2 nM
[22]
  half-life: < 4 h

## NCCNC(=O)c1ccc(C2CCC3(CC2)OOC2(OO3)C3CC4CC(C3)CC2C4)cc1 (centres undefined)
Plasmodium falciparum [21]
  IC50: 1.1 nM
[22]
  half-life: < 4 h

## O=C1CCC(c2ccc(CN3CCOCC3)cc2)CC1
[1]
  Retention_time: 0.84 min
[2]
  Drug metabolism: Metabolite_Detected
[3]
  Drug metabolism: Metabolite_Detected
[4]
  Drug metabolism: Metabolite_Detected

## O=C(NCC1CCNCC1)c1ccc(C2CCC3(CC2)OOC2(OO3)C3CC4CC(C3)CC2C4)cc1 (centres undefined)
Plasmodium falciparum [21]
  IC50: 5.3 nM
[22]
  half-life: < 4 h

## NC1CN(C(=O)c2ccc(C3CCC4(CC3)OOC3(OO4)C4CC5CC(C4)CC3C5)cc2)C1 (centres undefined)
Plasmodium falciparum [21]
  IC50: 33 nM
[22]
  half-life: < 4 h

## CS(=O)(=O)O.c1cc(C2CCC3(CC2)OOC2(O3)C3CC4CC(C3)CC2C4)ccc1OCCN1CCOCC1 (centres undefined)
[7]
  Vd: 18 L/kg
[10]; FeSSIF, pH 5
  solubility at 4 h: > 1500 µg/mL
[14]
  solubility at 4 h: 6800 µg/mL
[15]
  solubility at 4 h: > 8000 µg/mL
[16]
  solubility at 4 h: 240 µg/mL
[17]
  solubility at 4 h: 34 µg/mL
[18]
  solubility at 4 h: 120 µg/mL
[25]
  bioavailability: 100%

## CN1CCN(C(=O)c2ccc(C3CCC4(CC3)OOC3(OO4)C4CC5CC(C4)CC3C5)cc2)CC1 (centres undefined)
Plasmodium falciparum [21]
  IC50: 6.4 nM
[22]
  half-life: < 4 h

## CC(C)(N)CNC(=O)CC1CCC2(CC1)OOC1(O2)C2CC3CC(C2)CC1C3 (centres undefined)
Plasmodium berghei [6]
  Activity: 99.98%
Plasmodium berghei [9]
  MSD: 10.2 days

## FC1CCN(Cc2ccc(C3CCC4(CC3)OOC3(OO4)C4CC5CC(C4)CC3C5)cc2)CC1 (centres undefined)
[26]
  Stability: Stable
[27]
  Stability: Stable
Plasmodium falciparum [21]
  IC50: 1.8 nM

## CS(=O)(=O)O.FC1CCN(Cc2ccc(C3CCC4(CC3)OOC3(OO4)C4CC5CC(C4)CC3C5)cc2)CC1 (centres undefined)
Plasmodium berghei [6]
  Activity: 99.98%
Plasmodium berghei [9]
  MSD: 13 days

## C[C@H]1[C@H](OC(=O)CCC(=O)O)O[C@@H]2O[C@@]3(C)CC[C@H]4[C@H](C)CC[C@@H]1[C@@]24OO3 [ARTESUNATE]
Plasmodium berghei [6]
  Activity: 99.09%
Plasmodium falciparum [28]
  ED90: 10 mg/kg
Plasmodium berghei [9]
  MSD: 6.8 days

## O=C(c1ccc(C2CCC3(CC2)OOC2(OO3)C3CC4CC(C3)CC2C4)cc1)N1CCOCC1 (centres undefined)
Plasmodium falciparum [21]
  IC50: 7.1 nM
[22]
  half-life: < 4 h

## c1cc(C2CCC3(CC2)OOC2(O3)C3CC4CC(C3)CC2C4)ccc1OCCN1CCOCC1 (centres undefined) [listing 2 of 2 here]
Plasmodium berghei [6]
  Activity: 99.4%
Plasmodium berghei [9]
  MSD: 30 days
Plasmodium falciparum [29]
  ED90: 6.2 mg/kg
Plasmodium falciparum [21]
  IC50: 8 nM
